Experimental data as given in patent US20100267561A1, “HERBICIDAL PYRIDAZINONE DERIVATIVES” (priority 2007, published 2010).

Legend:
Assay in all cases: Test E pre-/postemergence plant response
Type in all cases: in vivo
[1] = tested on: southern (S.) sandbur (Cenchrus echinatus); conditions: scale 0 to 100
Source text: (§1) Seeds of plant species selected from bermudagrass (Cynodon dactylon), Surinam grass (Brachiaria decumbens), large crabgrass (Digitaria sanguinalis), green foxtail (Setaria viridis), goosegrass (Eleusine indica), johnsongrass (Sorghum halepense), kochia (Kochia scoparia), pitted morningglory (Ipomoea lacunosa), purple nutsedge (Cyperus rotundus), common ragweed (Ambrosia elation), black mustard (Brassica nigra), guineagrass (Panicum maximum), dallisgrass (Paspalum dilatatum), barnyardgrass (Echinochloa crus-galli), southern (S.) sandbur (Cenchrus echinatus), common sowthistle (Sonchus oleraceous), prickly sida (Sida spinosa), Italian ryegrass (Lolium multiflorum), common purslane (Portulaca oleracea), broadleaf signalgrass (Brachiaria platyphylla), common groundsel (Senecio vulgaris), common chickweed (Stellaria media), Virginia (V.) dayflower (Commelina virginica), tropical (T.) spiderwort (Commelina benghalensis), annual bluegrass (Poa annua), naked crabgrass (Digitaria nuda), itchgrass (Rottboellia cochinchinensis), quackgrass (Elytrigia repens), Canada horseweed (Conyza canadensis), field bindweed (Convolvulus arvensis), spanishneedles (Bidens bipinnata), common mallow (Malva sylvestris) and Russian thistle (Salsola kali) were planted and treated preemergence with test chemicals formulated in a non-phytotoxic solvent mixture which included a surfactant. At the same time, plants selected from these weed species were treated with postemergence applications of some of the test chemicals formulated in the same manner. Plants ranged in height from 2 to 18 cm (1- to 4-leaf stage) for postemergence treatments.
(§2) Treated plants and controls were maintained in a greenhouse for 14 to 21 days, after which time all species were compared to controls and visually evaluated. Plant response ratings, summarized in Table E, are based on a scale of 0 to 100 where 0 is no effect and 100 is complete control. A dash (-) response means no test result.

[2] = tested on: Italian ryegrass (Lolium multiflorum); conditions: scale 0 to 100
Source text: as §1, §2

[3] = tested on: barnyardgrass (Echinochloa crus-galli); conditions: scale 0 to 100
Source text: as §1, §2

[4] = tested on: naked crabgrass (Digitaria nuda); conditions: scale 0 to 100
Source text: as §1, §2

[5] = tested on: annual bluegrass (Poa annua); conditions: scale 0 to 100
Source text: as §1, §2

[6] = tested on: common chickweed (Stellaria media); conditions: Postemergence, scale 0 to 100
Source text: as §1, §2

[7] = tested on: pitted morningglory (Ipomoea lacunosa); conditions: scale 0 to 100
Source text: as §1, §2

[8] = tested on: common groundsel (Senecio vulgaris); conditions: Postemergence, scale 0 to 100
Source text: as §1, §2

[9] = tested on: johnsongrass (Sorghum halepense); conditions: scale 0 to 100
Source text: as §1, §2

## Cn1ncc(O)c(-c2nn(-c3ccc(Cl)cc3)cc2Br)c1=O [Compound 31]
[1]; 16 g ai/ha, Preemergence
  Plant response rating, Sandbur, S.: 15
[1]; 31 g ai/ha, Preemergence
  Plant response rating, Sandbur, S.: 20
[1]; 62 g ai/ha, Preemergence
  Plant response rating, Sandbur, S.: 90
[1]; Postemergence, 8 g ai/ha
  Plant response rating, Sandbur, S.: 0
[1]; Postemergence, 16 g ai/ha
  Plant response rating, Sandbur, S.: 70
[1]; Postemergence, 31 g ai/ha
  Plant response rating, Sandbur, S.: 75
[1]; Postemergence, 62 g ai/ha
  Plant response rating, Sandbur, S.: 75
[2]; 16 g ai/ha, Preemergence
  Plant response rating, Ryegrass, Italian: 65
[2]; 31 g ai/ha, Preemergence
  Plant response rating, Ryegrass, Italian: 90
[2]; 62 g ai/ha, Preemergence
  Plant response rating, Ryegrass, Italian: 100
[2]; Postemergence, 8 g ai/ha
  Plant response rating, Ryegrass, Italian: 30
[2]; Postemergence, 16 g ai/ha
  Plant response rating, Ryegrass, Italian: 35
[2]; Postemergence, 31 g ai/ha
  Plant response rating, Ryegrass, Italian: 50
[2]; Postemergence, 62 g ai/ha
  Plant response rating, Ryegrass, Italian: 90
[3]; 8 g ai/ha, Preemergence
  Plant response rating, Barnyardgrass: 0
[3]; 16 g ai/ha, Preemergence
  Plant response rating, Barnyardgrass: 15
[3]; 31 g ai/ha, Preemergence
  Plant response rating, Barnyardgrass: 75
[3]; 62 g ai/ha, Preemergence
  Plant response rating, Barnyardgrass: 90
[3]; Postemergence, 8 g ai/ha
  Plant response rating, Barnyardgrass: 35
[3]; Postemergence, 16 g ai/ha
  Plant response rating, Barnyardgrass: 70
[3]; Postemergence, 31 g ai/ha
  Plant response rating, Barnyardgrass: 75
[3]; Postemergence, 62 g ai/ha
  Plant response rating, Barnyardgrass: 100
[4]; 8 g ai/ha, Preemergence
  Plant response rating, Crabgrass, Naked: 0
[4]; 16 g ai/ha, Preemergence
  Plant response rating, Crabgrass, Naked: 50
[4]; 31 g ai/ha, Preemergence
  Plant response rating, Crabgrass, Naked: 98
[4]; 62 g ai/ha, Preemergence
  Plant response rating, Crabgrass, Naked: 100
[4]; Postemergence, 8 g ai/ha
  Plant response rating, Crabgrass, Naked: 30
[4]; Postemergence, 16 g ai/ha
  Plant response rating, Crabgrass, Naked: 65
[4]; Postemergence, 31 g ai/ha
  Plant response rating, Crabgrass, Naked: 75
[4]; Postemergence, 62 g ai/ha
  Plant response rating, Crabgrass, Naked: 90
[5]; 8 g ai/ha, Preemergence
  Plant response rating, Bluegrass: 0
[5]; 16 g ai/ha, Preemergence
  Plant response rating, Bluegrass: 0
[5]; 31 g ai/ha, Preemergence
  Plant response rating, Bluegrass: 0
[5]; 62 g ai/ha, Preemergence
  Plant response rating, Bluegrass: 0
[5]; Postemergence, 8 g ai/ha
  Plant response rating, Bluegrass: 0
[5]; Postemergence, 16 g ai/ha
  Plant response rating, Bluegrass: 0
[5]; Postemergence, 31 g ai/ha
  Plant response rating, Bluegrass: 0
[5]; Postemergence, 62 g ai/ha
  Plant response rating, Bluegrass: 10
[6]; 8 g ai/ha
  Plant response rating, Chickweed: 0
[6]; 16 g ai/ha
  Plant response rating, Chickweed: 0
[6]; 31 g ai/ha
  Plant response rating, Chickweed: 0
[7]; 16 g ai/ha, Preemergence
  Plant response rating, Morningglory: 0
[7]; 31 g ai/ha, Preemergence
  Plant response rating, Morningglory: 0
[7]; 62 g ai/ha, Preemergence
  Plant response rating, Morningglory: 0
[7]; Postemergence, 8 g ai/ha
  Plant response rating, Morningglory: 0
[7]; Postemergence, 16 g ai/ha
  Plant response rating, Morningglory: 0
[7]; Postemergence, 31 g ai/ha
  Plant response rating, Morningglory: 0
[7]; Postemergence, 62 g ai/ha
  Plant response rating, Morningglory: 0
[8]; 8 g ai/ha
  Plant response rating, Groundsel: 0
[8]; 16 g ai/ha
  Plant response rating, Groundsel: 0
[9]; 16 g ai/ha, Preemergence
  Plant response rating, Johnsongrass: 25
[9]; 31 g ai/ha, Preemergence
  Plant response rating, Johnsongrass: 80
[9]; 62 g ai/ha, Preemergence
  Plant response rating, Johnsongrass: 98
[9]; Postemergence, 8 g ai/ha
  Plant response rating, Johnsongrass: 40
[9]; Postemergence, 16 g ai/ha
  Plant response rating, Johnsongrass: 60
[9]; Postemergence, 31 g ai/ha
  Plant response rating, Johnsongrass: 75
[9]; Postemergence, 62 g ai/ha
  Plant response rating, Johnsongrass: 100

## CCc1cc(-c2ccc(Cl)cc2)nn1-c1c(OC(=O)C(C)(C)C)cnn(C)c1=O [Compound 40]
[1]; 16 g ai/ha, Preemergence
  Plant response rating, Sandbur, S.: 98
[1]; 31 g ai/ha, Preemergence
  Plant response rating, Sandbur, S.: 100
[1]; 62 g ai/ha, Preemergence
  Plant response rating, Sandbur, S.: 100
[1]; Postemergence, 8 g ai/ha
  Plant response rating, Sandbur, S.: 75
[1]; Postemergence, 16 g ai/ha
  Plant response rating, Sandbur, S.: 85
[1]; Postemergence, 31 g ai/ha
  Plant response rating, Sandbur, S.: 95
[1]; Postemergence, 62 g ai/ha
  Plant response rating, Sandbur, S.: 100
[2]; 16 g ai/ha, Preemergence
  Plant response rating, Ryegrass, Italian: 98
[2]; 31 g ai/ha, Preemergence
  Plant response rating, Ryegrass, Italian: 100
[2]; 62 g ai/ha, Preemergence
  Plant response rating, Ryegrass, Italian: 100
[2]; Postemergence, 8 g ai/ha
  Plant response rating, Ryegrass, Italian: 90
[2]; Postemergence, 16 g ai/ha
  Plant response rating, Ryegrass, Italian: 90
[2]; Postemergence, 31 g ai/ha
  Plant response rating, Ryegrass, Italian: 100
[2]; Postemergence, 62 g ai/ha
  Plant response rating, Ryegrass, Italian: 100
[3]; 8 g ai/ha, Preemergence
  Plant response rating, Barnyardgrass: 75
[3]; 16 g ai/ha, Preemergence
  Plant response rating, Barnyardgrass: 95
[3]; 31 g ai/ha, Preemergence
  Plant response rating, Barnyardgrass: 100
[3]; 62 g ai/ha, Preemergence
  Plant response rating, Barnyardgrass: 100
[3]; Postemergence, 8 g ai/ha
  Plant response rating, Barnyardgrass: 100
[3]; Postemergence, 16 g ai/ha
  Plant response rating, Barnyardgrass: 100
[3]; Postemergence, 31 g ai/ha
  Plant response rating, Barnyardgrass: 100
[3]; Postemergence, 62 g ai/ha
  Plant response rating, Barnyardgrass: 100
[4]; 8 g ai/ha, Preemergence
  Plant response rating, Crabgrass, Naked: 90
[4]; 16 g ai/ha, Preemergence
  Plant response rating, Crabgrass, Naked: 90
[4]; 31 g ai/ha, Preemergence
  Plant response rating, Crabgrass, Naked: 100
[4]; 62 g ai/ha, Preemergence
  Plant response rating, Crabgrass, Naked: 100
[4]; Postemergence, 8 g ai/ha
  Plant response rating, Crabgrass, Naked: 50
[4]; Postemergence, 16 g ai/ha
  Plant response rating, Crabgrass, Naked: 75
[4]; Postemergence, 31 g ai/ha
  Plant response rating, Crabgrass, Naked: 95
[4]; Postemergence, 62 g ai/ha
  Plant response rating, Crabgrass, Naked: 100
[5]; 8 g ai/ha, Preemergence
  Plant response rating, Bluegrass: 60
[5]; 16 g ai/ha, Preemergence
  Plant response rating, Bluegrass: 90
[5]; 62 g ai/ha, Preemergence
  Plant response rating, Bluegrass: 95
[5]; Postemergence, 8 g ai/ha
  Plant response rating, Bluegrass: 0
[5]; Postemergence, 16 g ai/ha
  Plant response rating, Bluegrass: 0
[5]; Postemergence, 31 g ai/ha
  Plant response rating, Bluegrass: 15
[5]; Postemergence, 62 g ai/ha
  Plant response rating, Bluegrass: 15
[6]; 8 g ai/ha
  Plant response rating, Chickweed: 0
[6]; 16 g ai/ha
  Plant response rating, Chickweed: 0
[6]; 31 g ai/ha
  Plant response rating, Chickweed: 0
[7]; 16 g ai/ha, Preemergence
  Plant response rating, Morningglory: 0
[7]; 31 g ai/ha, Preemergence
  Plant response rating, Morningglory: 0
[7]; 62 g ai/ha, Preemergence
  Plant response rating, Morningglory: 0
[7]; Postemergence, 8 g ai/ha
  Plant response rating, Morningglory: 0
[7]; Postemergence, 16 g ai/ha
  Plant response rating, Morningglory: 0
[7]; Postemergence, 31 g ai/ha
  Plant response rating, Morningglory: 0
[7]; Postemergence, 62 g ai/ha
  Plant response rating, Morningglory: 0
[9]; 16 g ai/ha, Preemergence
  Plant response rating, Johnsongrass: 75
[9]; 31 g ai/ha, Preemergence
  Plant response rating, Johnsongrass: 75
[9]; 62 g ai/ha, Preemergence
  Plant response rating, Johnsongrass: 98
[9]; Postemergence, 8 g ai/ha
  Plant response rating, Johnsongrass: 60
[9]; Postemergence, 16 g ai/ha
  Plant response rating, Johnsongrass: 60
[9]; Postemergence, 31 g ai/ha
  Plant response rating, Johnsongrass: 90
[9]; Postemergence, 62 g ai/ha
  Plant response rating, Johnsongrass: 98
